From PubChem BioAssay AID1963980 (Molecular Pharmacology Branch, DTP, NCI, 2024)

Test system: 475296-252-R-J1-PDC spheroid viability
Assay: Anticancer human tumor 475296-252-R-J1-PDC patient-derived rectal carcinoma cell line growth inhibition [PI3K]
Conditions: spheroids with HUVEC and MSC; for viability, T/C: stronger effect = lower value
In short: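 Tumor cells grown as multi-cell spheroids with HUVEC endothelial cells and MSC fibroblast-like stroma were treated with targeted agents combined with inavolisib, alpelisib, duvelisib or copanlisib. Doses fell in half-log steps from near clinical Cmax, else from 10 microM. Viability was measured.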

[1] = curve of first compound, second compound 0.0316 µM
[2] = curve of first compound, second compound 0.1 µM
[3] = curve of first compound, second compound 0.316 µM
[4] = curve of first compound, second compound 1 µM
[5] = second compound 0.0316 µM, first compound 0.0316 µM
[6] = second compound 0.0316 µM, first compound 0.1 µM
[7] = second compound 0.0316 µM, first compound 0.316 µM
[8] = second compound 0.0316 µM, first compound 1 µM
[9] = second compound 0.0316 µM, first compound 3.16 µM
[10] = second compound 0.0316 µM, first compound 10 µM
[11] = second compound 0.1 µM, first compound 0.0316 µM
[12] = second compound 0.1 µM, first compound 0.1 µM
[13] = second compound 0.1 µM, first compound 0.316 µM
[14] = second compound 0.1 µM, first compound 1 µM
[15] = second compound 0.1 µM, first compound 3.16 µM
[16] = second compound 0.1 µM, first compound 10 µM
[17] = second compound 0.316 µM, first compound 0.0316 µM
[18] = second compound 0.316 µM, first compound 0.1 µM
[19] = second compound 0.316 µM, first compound 0.316 µM
[20] = second compound 0.316 µM, first compound 1 µM
[21] = second compound 0.316 µM, first compound 3.16 µM
[22] = second compound 0.316 µM, first compound 10 µM
[23] = second compound 1 µM, first compound 0.0316 µM
[24] = second compound 1 µM, first compound 0.1 µM
[25] = second compound 1 µM, first compound 0.316 µM
[26] = second compound 1 µM, first compound 1 µM
[27] = second compound 1 µM, first compound 3.16 µM
[28] = second compound 1 µM, first compound 10 µM
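Also: spheroids exposed to agents for seven days before readout.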

CC(Cn1ccc(-c2ccc(C#N)c(Cl)c2)n1)NC(=O)c1cc(C(C)O)[nH]n1 (stereo not given) + CC(Nc1ccc2c(c1)OCCn1cc(N3C(=O)OCC3C(F)F)nc1-2)C(N)=O
IC50 (curve of first compound, second compound 0.00316 µM): > 10 µM | IC50 (curve of first compound, second compound 0.01 µM): > 10 µM | IC50 [1]: > 10 µM | IC50 [2]: > 10 µM | IC50 [3]: > 10 µM | IC50 [4]: > 10 µM | viability, T/C (second compound 0.00316 µM, first compound 0.0316 µM): 110% | viability, T/C (second compound 0.00316 µM, first compound 0.1 µM): 96.5% | viability, T/C (second compound 0.00316 µM, first compound 0.316 µM): 93.9% | viability, T/C (second compound 0.00316 µM, first compound 1 µM): 83.8% | viability, T/C (second compound 0.00316 µM, first compound 3.16 µM): 106% | viability, T/C (second compound 0.00316 µM, first compound 10 µM): 95.2% | viability, T/C (second compound 0.01 µM, first compound 0.0316 µM): 101% | viability, T/C (second compound 0.01 µM, first compound 0.1 µM): 94% | viability, T/C (second compound 0.01 µM, first compound 0.316 µM): 98.8% | viability, T/C (second compound 0.01 µM, first compound 1 µM): 88.4% | viability, T/C (second compound 0.01 µM, first compound 3.16 µM): 98.4% | viability, T/C (second compound 0.01 µM, first compound 10 µM): 103% | viability, T/C [5]: 87.1% | viability, T/C [6]: 102% | viability, T/C [7]: 91.3% | viability, T/C [8]: 90.9% | viability, T/C [9]: 97.5% | viability, T/C [10]: 103% | viability, T/C [11]: 84.6% | viability, T/C [12]: 93.4% | viability, T/C [13]: 101% | viability, T/C [14]: 90.9% | viability, T/C [15]: 95.3% | viability, T/C [16]: 98.4% | viability, T/C [17]: 84% | viability, T/C [18]: 107% | viability, T/C [19]: 91% | viability, T/C [20]: 89.7% | viability, T/C [21]: 90.8% | viability, T/C [22]: 89.5% | viability, T/C [23]: 92% | viability, T/C [24]: 83.1% | viability, T/C [25]: 87.9% | viability, T/C [26]: 93.5% | viability, T/C [27]: 80.6% | viability, T/C [28]: 83.4%

C#Cc1c(F)ccc2cc(O)cc(-c3ncc4c(N5CC6CCC(C5)N6)nc(OCC56CCCN5CC(F)C6)nc4c3F)c12 (stereo not given) + CC(Nc1ncnc2nc[nH]c12)c1cc2cccc(Cl)c2c(=O)n1-c1ccccc1
IC50 [1]: > 10 µM | IC50 [2]: > 10 µM | IC50 [3]: > 10 µM | IC50 [4]: 6.37 µM | IC50 (curve of first compound, second compound 3.16 µM): 3.95 µM | IC50 (curve of first compound, second compound 10 µM): 1.76 µM | viability, T/C [5]: 94.9% | viability, T/C [6]: 73.8% | viability, T/C [7]: 77.2% | viability, T/C [8]: 71.8% | viability, T/C [9]: 68.8% | viability, T/C [10]: 46.7% | viability, T/C [11]: 91.5% | viability, T/C [12]: 96.5% | viability, T/C [13]: 79.7% | viability, T/C [14]: 71.7% | viability, T/C [15]: 68.1% | viability, T/C [16]: 54.4% | viability, T/C [17]: 96.7% | viability, T/C [18]: 83.3% | viability, T/C [19]: 79.3% | viability, T/C [20]: 73.5% | viability, T/C [21]: 66.9% | viability, T/C [22]: 47.3% | viability, T/C [23]: 100% | viability, T/C [24]: 85.5% | viability, T/C [25]: 71.1% | viability, T/C [26]: 70.3% | viability, T/C [27]: 57.9% | viability, T/C [28]: 43.8% | viability, T/C (second compound 3.16 µM, first compound 0.0316 µM): 102% | viability, T/C (second compound 3.16 µM, first compound 0.1 µM): 88.6% | viability, T/C (second compound 3.16 µM, first compound 0.316 µM): 71.7% | viability, T/C (second compound 3.16 µM, first compound 1 µM): 61% | viability, T/C (second compound 3.16 µM, first compound 3.16 µM): 56% | viability, T/C (second compound 3.16 µM, first compound 10 µM): 40.6% | viability, T/C (second compound 10 µM, first compound 0.0316 µM): 95.2% | viability, T/C (second compound 10 µM, first compound 0.1 µM): 81.6% | viability, T/C (second compound 10 µM, first compound 0.316 µM): 68.4% | viability, T/C (second compound 10 µM, first compound 1 µM): 55.4% | viability, T/C (second compound 10 µM, first compound 3.16 µM): 45.3% | viability, T/C (second compound 10 µM, first compound 10 µM): 31.8%

C=CC(=O)N1CCN(c2nc(=O)n(-c3c(C)ccnc3C(C)C)c3nc(-c4c(O)cccc4F)c(F)cc23)C(C)C1 (stereo not given)
viability, T/C (compound 0.1 µM): 98.7% [middle of 4 runs] | viability, T/C (compound 0.316 µM): 97% [middle of 4 runs] | viability, T/C (compound 1 µM): 105% [middle of 4 runs] | viability, T/C (compound 3.16 µM): 110% [middle of 4 runs] | viability, T/C (compound 10 µM): 110% [middle of 4 runs] | IC50 (curve of compound): > 10 µM
